Measured values taken from patent US5905073A, “Use of 2-hydroxy-5-phenylazobenzoic acid derivatives as colon cancer chemopreventative and chemotherapeutic agents” (priority 1996, dated 1999).
Read-outs that look alike come from different tables or passages of the source.

Assays:
[1] = test system: LS174T cells; test: Proliferation of LS174T colon cancer cells, Coulter Counter cell count; type: cell-based, human
Experimental: Cells were grown in Dulbeccos Modified Eagle medium supplemented with 10% calf serum in an atmosphere of 5% CO2 at 37° C. For growth experiments, cells were seeded into 24-well tissue culture dishes (2 cm^2 /well) at a density of 20,000 cells/well and allowed to attach for 12 hours. The growth medium was then changed and replaced with fresh media containing the test drugs.
The test drugs were dissolved in tissue culture media at the desired concentration and added to individual wells. To determine the number of cells per well, media was removed and the cells washed with phosphate buffered saline solution. The cells were then incubated 15 minutes with trypsin-EDTA solution until detached. The detached cells were then removed from the wells and counted using a Coulter Counter (Model ZBI).
The cell numbers shown in Table I are the average of triplicate culture wells.

[2] = test system: LS174T cells; test: Dose response growth inhibition of LS174T cells, Sulforhodamine B dye binding assay; type: cell-based, human; details: Homo sapiens
Experimental: (§1) For dose response studies a sensitive dye binding assay was adapted which allows simultaneous assay of multiple agents and doses in 96-well plates. Cells were plated and allowed to adhere for 24 hours prior to addition of the study drug. Cell densities were then determined 4 days later by fixation of the wells and staining with Sulforhodamine B dye.

[3] = test system: LoVo cells; test: Growth inhibition of LoVo colon cancer cells; type: cell-based; details: Homo sapiens, Table IV, read-out: IC50 for inhibition of human colon cancer cell proliferation
Experimental: as §1

[4] = test system: aberrant crypts induced by azoxymethane (AOM); test: Inhibition of azoxymethane-induced aberrant crypt formation (induction study); type: in vivo, rat (F344); details: in drinking water, distal 7-8 cm of colon
Source text: Aberrant crypts were originally described in carcinogen-induced colonic mucosa as crypts of "increased size, thicker epithelial lining and increased pericryptal zones" (Bird et al. (1989) Cancer Surv. 8:189-200). […] The anti-tumor activity of several of these agents has been confirmed in longer term AOM animal studies. The aberrant crypt model is, therefore, an ideal in vivo assay for efficacy of balsalazide and metabolites.
Inhibition of Aberrant Crypt Induction.
Four groups of 5 male F344 rats were used. Animals were 6-8 weeks of age at the start of dosing with a starting weight range within +/-20% of the overall mean. The expected response to AOM treatment from published studies is the formation of 100-140 aberrant crypts per animal (Wargovich et al. (1992) J. Cell. Biochem. 16G:51-54). […]
Body weights were recorded twice weekly, and water consumed by each cage of animals measured twice weekly. Consumption is calculated as average ml/animal/cage.
For aberrant crypt analysis, animals were sacrificed under CO2 euthanasia at the end of either three weeks or five weeks of dosing. […] After a saline rinse, the number of foci of aberrant crypts was scored by counting under a microscope at 40-100× magnification. The length of the colonic tissue was also measured. […]

[5] = test system: rectal mucosal reactive oxygen metabolite production; details: cited from earlier work
[6] = rat; cited from earlier work
[7] = cited from earlier work
[8] = test system: colonic inflammation; details: several animal models of colonic inflammation; cited from earlier work

In the case of O=C(O)CCNC(=O)c1ccc(/N=N/c2ccc(O)c(C(=O)O)c2)cc1 [Balsalazide], the “Cell No. on Day 10” value ([1]; 10 mM, average of triplicate wells) is reported as 24925, the activity at 10000 µM ([1]; Homo sapiens, 240 h, read-out: % of Control Cells) is reported as 3.51% and the IC50 ([2]; Table IV, read-out: IC50 for inhibition of human colon cancer cell proliferation) is reported as 5.29 mM. For the same compound, the IC50 ([2]; text (FIG. 5), read-out: IC50) was 5.2 mM, the IC50 [3] was 5 mM and the “inhibition in the average number of aberrant crypts” value ([4]; week 1) was 61.8%. For the same compound, the “inhibition in the average number of aberrant crypts” value ([4]; week five) was 58.1%, the “reduction of rectal mucosal reactive oxygen metabolite production” value ([5]; rectal biopsies, ulcerative colitis patients) was “over 90%” and the “effectiveness relative to taurine, ascorbate or N-acetyl cysteine” value ([5]; similar concentrations) was “more effective”. The maximum tolerated dose [6] was > 12,000 mg/kg/day, the “gastric or duodenal ulceration” value ([7]; human, in vivo) was “no evidence of gastric or duodenal ulceration” and the gastrointestinal tolerance ([7]; human, in vivo) was “excellent gastrointestinal tolerance”. The nephrotoxicity ([7]; over 500 patients, some for as long as three years) was “no evidence of nephrotoxicity” and the “anti-inflammatory activity in animal models” value [8] was “possesses anti-inflammatory activity”.
